The nature of series [1]: Pharmacokinetics in serum after i.p. injection. The class given is in vivo, mouse. The procedure: Pharmacokinetic analyses. To determine the pharmacokinetic parameters of AGX51, eight-week old male Balb/c mice (Taconic farms) were dosed once by i.p. injection with 30 mg/kg, 50 mg/kg or 100 mg/kg AGX51 prepared in 70% DMSO (n=3 mice per group). Another set of three mice was dosed with 100 mg/kg AGX51 prepared in 100% DMSO. Blood was collected at 30 minutes, 1 hour, 3 hours, 6 hours and 24 hours post AGX51 administration and plasma analyzed via LC-MS as per the protocol previously validated in the MSKCC Antitumor Assessment Core Facility. Following blood collection, the mice were sacrificed via CO2 asphyxiation and the eyes from the 30 mg/kg treatment group were collected and flash frozen for analysis. Data obtained from LC-MS was analyzed via WinNonLin software (version 8.1) for pharmacokinetic parameters.
The determination of the feasibility of administering AGX51 systemically for the treatment of ocular retinopathies was next explored. To determine the half-life of AGX51 in serum, mice were treated by intraperitoneal (i.p.) injection with a single dose of 30 mg/kg or 50 mg/kg AGX51 in 70% DMSO and blood was collected over a 24-hour period. […] Thus, 70% formulations were used in all future studies.

Series [2] addresses T1, Id1 (Mus musculus, UniProt P20067).
T1 construct: in the presence or absence of purified full-length Id1; made in house; host or cells: bacteria (Id1: Rosetta 2 (DE3))
Description: Electrophoretic mobility shift assay (EMSA): ability of Id1 to antagonize E47 binding to DNA. It is filed as biochemical. Conditions: comparison between compounds. The procedure: Electrophoretic mobility shift assays. To test the activity of compounds identified in the in silico screen, full-length E47 was purified from bacteria and mixed with a P^32 labeled E-box sequence derived from the muscle creatine kinase (MCK) enhancer, BSA, DTT, poly dI-dC, salmon sperm, and HeLa nuclear extract, in the presence or absence of purified full-length Id1. Increasing concentrations of the various test compounds dissolved in DMSO or DMSO alone were added to the reaction mixes for 30 minutes, resolved on a 5% non-denaturing polyacrylamide gel, and autoradiographed. Electrophoretic mobility shift assays (EMSAs) were carried out on whole cell lysates from AGX51-treated cells and the EMSA was performed as described previously (Tournay and Benezra, Mol Cell Biol, 16: 2418-30 (1996)).
Pesce and Benezra, Mol. Cell. Biol., 13, 7874-7880 (1993). An in silico screen of 2,234,000 compounds for crevice binding was performed, yielding 3,000 hits that were pared for drug-like properties. 364 candidates emerged and were tested for their capacity to inhibit the ability of Id1 to antagonize E47 binding to DNA by EMSAs as previously described (Benezra, 1994). […] This anti-Id1 activity was most likely due to the perturbation of the Id1-E47 interaction but other explanations, such as the binding of an Id1-E47 complex to DNA in the presence of compound, are possible. […]
For orientation: A gel shift assay detects complexes by their altered migration in electrophoresis.

The target in series [3] is T2, ID1 (Homo sapiens, UniProt P41134).
T2 sequence (P41134 1-155): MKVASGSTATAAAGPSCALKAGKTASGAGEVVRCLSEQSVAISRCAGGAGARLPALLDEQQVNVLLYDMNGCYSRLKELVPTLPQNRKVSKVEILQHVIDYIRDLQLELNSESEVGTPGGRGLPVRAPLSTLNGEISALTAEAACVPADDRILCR
Kind of series: Western blot for ID1 in HUVECs. It is filed as cell-based. On the set-up: host or cells: HUVEC. Conditions: 0-40 μM, 24 hours. The procedure:
Immunoblotting. For immunoblotting, cells were collected by trypsinization, washed with PBS and lysed in homogenization buffer (0.3 M sucrose, 10 mM Tris (pH 8.0), 400 mM sodium chloride, 3 mM magnesium chloride, 0.5% NP40/IGEPAL, 100 μg/mL Aprotinin+Protease inhibitor cocktail (Roche #11 836 153 001). Proteins were separated by SDS-PAGE, transferred to a membrane (LI-COR), probed with primary antibodies overnight at 4° C., and probed with secondary antibodies (LI-COR) for 1-2 hours at room temperature. Proteins were visualized using the LI-COR Odyssey Infrared Imaging detection system. The following primary antibodies were used Id1, Id2, Id3, Id4 (195-14, 9-2-8, 17-3, 82-12, respectively, all from Biocheck), Cyclin D1 (2978, Cell Signaling), Actin (A2066, Sigma), Tubulin (T4026, Sigma). Western blot quantification was carried out using channel 700 and channel 800 intensity data from Odyssey application software version 3.0.30 (LI-COR), subtracting blank values and normalizing to Tubulin.
The activity of AGX51 was tested on primary human umbilical vein endothelial cells (HUVECs) and the HCT116 colorectal cancer cell line, two cell types with different ID1-4 expression profiles. […] The effects of AGX51 on ID3 loss in HUVECs was diminished in the 20-40 μM range compared with ID1, consistent with the weaker perturbation observed in the CD spectra.
Background: A western blot detects proteins with antibodies after separation by electrophoresis.

For series [4], the target named is T2, ID1. Kind of series: Ubiquitylation assay in HCT116 and U87 cells. It is filed as cell-based. As to conditions: 60 μM AGX51 two hours, then MG132 six hours. The procedure: Ubiquitylation assay. HCT116 cells were transfected with pcDNA3-ID1-Flag and pcDNA3-HA-Ubiquitin using lipofectamine 3000 (ThermoFisher). 36 hours after transfection, cells were treated with 60 μM AGX51 for two hours followed by 20 μM MG132 (EMD Millipore) for an additional six hours. After washing with ice-cold PBS twice, cells were lysed in 100 μL of TBS (50 mM Tris-HCl, pH 8.0, 150 mM NaCl) containing 2% SDS and boiled at 100° C. for 10 minutes. Lysates were diluted with 900 μL of TBS containing 1% NP40 and EDTA free protease inhibitor cocktail (Roche) and were cleared by centrifuge at 15,000 rpm for 15 minutes at 4° C. Immunoprecipitation was performed using 1 mg of cellular lysates with FLAG M2 affinity gel (Sigma, F2426). Ubiquitinylated proteins were analyzed by immunoblot using indicated antibodies.
Id proteins are degraded by the ubiquitin 26S proteasome system. Lasorella et al., Nat Rev Cancer, 14: 77-91 (2014). To determine if this degradation pathway mediated the effects of AGX51 on Id protein levels was then explored. HUVECs are difficult to transfect with expression constructs, so HCT116 cells were utilized for this assay. HCT116 cells were transfected with a construct expressing Flag-ID1 and then treated with 60 μM AGX51 for 2-24 hours (FIG. 3B). […]

Several values for one entry are separate records, joined by “and”; a condition that tells them apart may be missing. Equal values may be shown once.

T1 sequence (P20067 1-148 isoform P20067-2): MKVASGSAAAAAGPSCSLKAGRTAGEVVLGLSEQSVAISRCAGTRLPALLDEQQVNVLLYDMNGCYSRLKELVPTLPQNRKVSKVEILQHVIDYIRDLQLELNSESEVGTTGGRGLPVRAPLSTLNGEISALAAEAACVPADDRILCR

With `CCC(=O)N(CCC(c1ccc2c(c1)OCO2)c1ccccc1OC)Cc1ccccc1` (racemic) [AGX51, N-(3-(benzo[d][1,3]dioxol-5-yl)-3-(2-methoxyphenyl)propyl)-N-benzylpropionamide], the “mean maximum serum concentration” value in series [1] (30 mg/kg i.p., 70% DMSO) was 1.1 μg/mL and 2.7 μM; in series [1] (50 mg/kg i.p., 70% DMSO), 1.6 μg/mL and 4 μM. For the same compound, the “mean maximum serum concentration vs lower doses” value in series [1] (100 mg/kg i.p., 70% DMSO) is recorded as “not increased further”. Moreover, the mean serum concentration in series [1] (100 mg/kg i.p., 100% DMSO) is about 12 µM. In addition, the “relative potency in EMSA” value in series [2] is on record as “more potent than B”. Further, the “concentration at which significant decrease in ID1 protein levels was observed” value in series [3] was 10 µM. In addition, the ID1 polyubiquitylation entry in series [4] was “further increased ID1 polyubiquitylation”.

The record behind these values is patent US20220356163A1, “SMALL MOLECULE INHIBITORS OF Id PROTEINS” (MEMORIAL SLOAN KETTERING CANCER CENTER, priority 2019, published 2022).
